Here are results for 1 compound from patent EP3822283A1, “SEMAPHORIN 3A NEURODEGENERATION MODULATORS, COMPOSITIONS AND USES THEREOF” (Consejo Superior de Investigaciones Científicas (CSIC), priority 2019, dated 2021).

The target in the experiment is T1, Sema3A (Rattus norvegicus, UniProt Q63548).
T1 sequence (Q63548 21-772): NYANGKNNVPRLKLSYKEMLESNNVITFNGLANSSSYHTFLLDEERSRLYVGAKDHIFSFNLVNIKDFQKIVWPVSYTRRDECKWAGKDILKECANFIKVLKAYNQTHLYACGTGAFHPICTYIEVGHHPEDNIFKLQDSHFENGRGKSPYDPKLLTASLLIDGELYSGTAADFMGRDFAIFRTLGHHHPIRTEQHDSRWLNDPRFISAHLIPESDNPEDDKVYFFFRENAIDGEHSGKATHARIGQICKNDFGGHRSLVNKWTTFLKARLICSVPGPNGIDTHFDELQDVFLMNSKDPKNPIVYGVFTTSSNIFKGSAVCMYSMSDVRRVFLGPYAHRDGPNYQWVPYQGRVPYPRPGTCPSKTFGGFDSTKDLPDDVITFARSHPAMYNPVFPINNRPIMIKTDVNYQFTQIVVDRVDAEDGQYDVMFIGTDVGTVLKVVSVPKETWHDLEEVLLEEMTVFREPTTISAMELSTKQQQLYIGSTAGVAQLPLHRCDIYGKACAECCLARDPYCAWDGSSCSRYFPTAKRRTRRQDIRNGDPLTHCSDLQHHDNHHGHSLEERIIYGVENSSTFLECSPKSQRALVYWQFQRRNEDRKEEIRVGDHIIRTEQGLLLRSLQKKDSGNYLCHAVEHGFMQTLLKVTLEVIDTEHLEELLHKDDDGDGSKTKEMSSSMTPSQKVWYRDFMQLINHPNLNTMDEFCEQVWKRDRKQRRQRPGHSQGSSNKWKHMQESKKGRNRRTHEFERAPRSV
Experimental: To evaluate the potential of the Compound 2 to inhibit Sema3a in a relevant small animal model, a rat axotomy study was carried out. […] Adult male Sprague-Dawley rats (12-15 weeks old, 300 g) were anesthetized (50 mg/kg xylazine and 35 mg/kg ketamine), and their left optic nerves were exposed by lateral canthotomy. Briefly, the conjuctivae were incised lateral to the cornea, and the retractor bulbus muscles were separated. Through a small opening in the meninges (50-100 µm), the nerve fibers were completely transected at a distance of 2-3 mm from the globe. The procedure was performed without damage to the nerve vasculature and optic nerve blood supply and with minimal damage to the meninges by the use of a specially designed glass dissector with a 200- µm tip and a smooth blunt edge (Solomon et al., 1996, Journal of Neuroscience Methods, 70, 21-5). […] Clinical examination of the eyes was performed using a slit lamp, and the eyes were monitored for any signs of hyperemia, edema, dis- charge, fibrin, and other inflammatory parameters. […] Two independent and blinded researchers counted the number of labeled RGC in flat-mounted retinas by fluorescent microscopy. For each retina, 20 representative microscopic fields were evaluated: 10 fields from the peripheral area and 10 fields from the central area (each field covering an area of 0.069 mm2). […]

Regarding `CCN(CC)CCN(CC(=O)N(CCN1CCCC1)CC(=O)N(CCC1CCCN1C)CC(N)=O)C(=O)OCc1ccccc1` (centres unmarked) [Compound 2, 2-[2-(1-methylpyrrolidin-2-yl)ethyl]-5-(2-pyrrolidin-1-yl)ethyl-8-benzyloxycarbonyl-11,11-diethyl-3,6-dioxo-2,5,8,11-tetraazaundecancarboxamide], where the note is “adult male Sprague-Dawley rats, optic nerve axotomy, single intravitreal dose 0.025 µg/eye immediately after surgery, 14 days after optic nerve surgery, 2 days after Di-Asp retrograde staining of RGC”, the “RGC survival compared to healthy rats” value stood at 30%. The “prevention of RGC loss (neuroprotection)” value (rat optic nerve axotomy, single intravitreal dose 0.025 µg/eye in 4 µl PBS, labeled RGC counted in flat-mounted retinas) was “neuroprotective”.
